We go through five compounds from article PMC8945229, “Development and Biological Characterization of a Novel Selective TrkA Agonist with Neuroprotective Properties against Amyloid Toxicity” (Biomedicines, 2022).

One series relates to PC12 cells. Put plainly: CellTox assay, serum deprivation-induced cell death. The format is cell-based. The note with it: serum deprivation; for CellTox positive cells normalized to total number of cells: 24 h, 500 nM; for IC50: CellTox, read-out: IC50 (anti-apoptotic dose–response). Here is the method: CellTox assay (G8742, Promega Corporation, Maddison, WI, USA) was used to assess survival of PC12 cells under serum deprivation conditions. PC12 cells were plated in 96-well plates, starved of serum for 4 h and subsequently treated with NGF (100 ng/mL) or ENT-A013 (500 nM) in the presence or absence of TrkA inhibitor GW441756 (20 μM, G-190, Alomone labs, Jerusalem, Israel) for 24 h. CellTox assay reagents and Hoescht (1:10,000, H3570, Invitrogen, Waltham, MA, USA) were added to each well for 30′ and cells were then imaged with a Zeiss AXIO Vert A1 fluorescent microscope (Zeiss, Jena, Germany). CellTox positive cells were normalized to total number of cells for each image.

Series [1] relates to Erk1/2. Description: Erk1/2 phosphorylation in PC12 cells (Western blot). The note with it: for Erk1/2 phosphorylation: 500 nM, 30′. The class given is cell-based. Here is the method: (§1) For immunoprecipitation experiments PC12 or HEK293T, cells were used when at 70–80% confluent. Cells were starved of serum for 4 h and subsequently treated with 100 ng/mL NGF or 500 nM of compound ENT-A013 for 30′. Cells were then lysed in Pierce™ IP Lysis Buffer (87788, Thermo Fischer Scientific, Waltham, MA, USA) containing proteases (539138, Calbiochem, Darmstadt, Germany) and phosphatase inhibitors (524629, Calbiochem, Darmstadt, Germany). Lysates were then immunoprecipitated overnight at 4 °C with TrkA antibody (1:100, 06-574, Sigma-Aldrich, St. Louis, MO, USA) (Table S1) or p75^NTR antibody (1:100, ab6172, Abcam plc., Cambridge, UK) followed by 4 h incubation with protein G-plus agarose beads (sc-2002, Santa Cruz Biotechnology, Inc., Dallas, TX, USA). Beads were then collected, washed 3X with lysis buffer, resuspended in SDS loading buffer and subjected to Western blot against phosphorylated Tyrosine (1:1000, BAM1676, R&D Systems, Inc., Minneapolis, MN, USA) or Traf6 antibody (1:2000, ab33915, Abcam, plc., Cambridge, UK). Whole cell lysates were subjected to Western blot against TrkA (1:1000, 06-574, Sigma-Aldrich, St. Louis, MO, USA), phosphorylated TrkB (1:1000, ABN1381, Sigma-Aldrich, St. Louis, MO, USA), phosphorylated TrkC (1:1000, STJ90960, St John’s Laboratory, Ltd., London, UK), TrkB (1:1000, 07-225-I, Sigma-Aldrich, St. Louis, MO, USA), TrkC (1:1000, C44H5, Cell Signaling Technology, Danvers, MA, USA), p75 (1:1000, 839701, Biolegend, Inc., San Diego, CA, USA), Traf6 (1:2000, ab33915, Abcam, plc., Cambridge, UK) phosphorylated Akt (1:1000, 9721S, Cell Signaling Technology, Danvers, MA, USA), phosphorylated Erk1/2 (1:1000, 9101S, Cell Signaling Technology, Danvers, MA, USA), total Akt (1:1000, 4691S Cell Signaling Technology, Danvers, MA, USA) and total Erk1/2 (1:1000, 4695S, Cell Signaling Technology, Danvers, MA, USA).

For series [2], the target named is T1, TrkA (Rattus norvegicus, UniProt P35739).
T1 construct: we used PC12 cells, a cell line that express TrkA and p75^NTR; host or cells: PC12
Put plainly: TrkA phosphorylation in PC12 cells (IP with TrkA antibody, Western blot against phosphorylated Tyrosine). The class given is cell-based. Particulars: for time TrkA phosphorylation is sustained after treatment: PC12 cells, 10, 30 or 60′ treatment. The method, then:
as §1, with “Cells were starved of serum for 4 h and subsequently treated with 100 ng/mL NGF or 500 nM of compound ENT-A013 for 30′.” left out
On the technique in general: Immunoblotting shows a protein as a band on a membrane.

The subject of the next series is γ-secretase. Put plainly: γ-secretase activity / APP processing in U2OS APP-C99-tGFP cells. Particulars: 3 μM, positive control. The format is cell-based. Here is the method: PC12 and HEK293T cells were obtained from LGC Promochem GmbH (Teddington, UK) and cultured under the conditions specified by the manufacturer. NIH3T3 cells were stably transfected with human TrkB plasmid. PC12 cells were grown in DMEM medium (11965084, Gibco, Grand Island, NY, USA) containing 10% Horse Serum (16050122, Gibco, Grand Island, NY, USA), 5% Fetal Bovine Serum (10270106, Gibco, Grand Island, NY, USA), 100 units/mL Penicillin and 0.1 mg/mL Streptomycin (15140122, Gibco, Grand Island, NY, USA) at 5% CO2 and 37 °C. Cells were used between passages 5–20. HEK293T and NIH3T3 cells were grown in the same medium as PC12 cells supplemented with 10% Fetal Bovine Serum and lacking Horse Serum. For transient transfection of HEK293T cells, lipofectamine was used and cells were transfected with human p75^NTR and Traf6 plasmids. To determine the intracellular activity of endogenous secretases, we tagged (tGFP) a truncated mutant (Tm) of APP containing the original amino acids sequence from M516 to N773. This Tm conserves the secretases cleavage sites, clathrin binding site, tau protein binding site, collagen binding site and some glycosylation sites critical for protein localization and intracellular trafficking. The cDNA of the TmAPP gene was amplified by PCR and subcloned into pturbo-GFP vector. The construction was transfected into U2OS cells (ATCC Cat Number HTB-96) using Lipofectamine LTX (Thermo Fisher Scientific, Waltham, MA, USA). After 48 h, individual cells were plated in MTP96 plates using F.SIGHT (CYTENA GmbH, Freiburg, Germany), and cultured in complete medium containing 250 μg/mL G418 for selection. The selection medium was changed every two to three days. The cells were allowed to grow for 3 to 4 weeks, after which clones were isolated for further analysis. Resistant clones were checked by RT-PCR and epifluorescence microscopy.
The Alzheimer’s Disease (AD) phenotype is partly attributed to the toxic effects caused by oligmeric Aβ, which results in reduced neuronal trophic support, caused by deregulation of neurotrophic signaling. It is therefore reasonable that a small molecule that can selectively activate TrkA signaling and promote neuronal survival could alleviate the detrimental effects caused by toxic Aβ oligomers, especially during the early phases of the disease or modulate APP misprocessing and therefore reduce the production of the toxic Aβ. The U2OS stably expressing APP-C99-tGFP cell line was used in order to monitor γ-secretase activity, the process responsible for Aβ production from APP. The assay achieves this by measuring the levels of fluorescent APP-C99 construct produced by β-secretase activity. When γ-secretase is active, the construct is cleaved, leading to Aβ production. […] Therefore, higher fluorescence levels correspond to decreased γ-secretase activity and Aβ aggregate formation by extension. […] In addition, in order to investigate whether ENT-A013 can protect cells against Aβ-induced toxicity we isolated neurons from the hippocampus of E17.5 mouse embryos, a brain area that is heavily affected in AD. Neurons were left in culture for 16–18 DIV and then were treated with oligomeric Aβ and ENT-A013 for 48 h. Subsequently, cells were fixed and cell death was assessed using TUNEL assay.
(A,B) Primary hippocampal neurons were treated for 48 h with oligomeric Aβ in the presence of ENT-A013 and TUNEL assay was used to quantify cell death. Representative images from 3 independent experiments. Data are shown as ±SEM. One-way ANOVA, Tukey’s Test correction: ** p < 0.01; *** p < 0.001. (C) Aggregate formation on untreated cells, treated with DAPT inhibitor of γ-secretase or with compound ENT-A013. […] Aggregate formation was quantified with a BD Pathway 855 High-Content Bioimager and Attonvision software.

On the set-up of series [3]: method as in PMID 27498123, PMID 33638308. The note with it: t = 60 min; cited from earlier work.
The subject of series [4] is Erk1/2. Also on record: method as in PMID 27618740. The note with it: cited from earlier work.
Series [5] concerns the target T1, TrkA. Also on record: method as in PMID 27618740. The note with it: cited from earlier work.

T1 sequence (P35739 33-799): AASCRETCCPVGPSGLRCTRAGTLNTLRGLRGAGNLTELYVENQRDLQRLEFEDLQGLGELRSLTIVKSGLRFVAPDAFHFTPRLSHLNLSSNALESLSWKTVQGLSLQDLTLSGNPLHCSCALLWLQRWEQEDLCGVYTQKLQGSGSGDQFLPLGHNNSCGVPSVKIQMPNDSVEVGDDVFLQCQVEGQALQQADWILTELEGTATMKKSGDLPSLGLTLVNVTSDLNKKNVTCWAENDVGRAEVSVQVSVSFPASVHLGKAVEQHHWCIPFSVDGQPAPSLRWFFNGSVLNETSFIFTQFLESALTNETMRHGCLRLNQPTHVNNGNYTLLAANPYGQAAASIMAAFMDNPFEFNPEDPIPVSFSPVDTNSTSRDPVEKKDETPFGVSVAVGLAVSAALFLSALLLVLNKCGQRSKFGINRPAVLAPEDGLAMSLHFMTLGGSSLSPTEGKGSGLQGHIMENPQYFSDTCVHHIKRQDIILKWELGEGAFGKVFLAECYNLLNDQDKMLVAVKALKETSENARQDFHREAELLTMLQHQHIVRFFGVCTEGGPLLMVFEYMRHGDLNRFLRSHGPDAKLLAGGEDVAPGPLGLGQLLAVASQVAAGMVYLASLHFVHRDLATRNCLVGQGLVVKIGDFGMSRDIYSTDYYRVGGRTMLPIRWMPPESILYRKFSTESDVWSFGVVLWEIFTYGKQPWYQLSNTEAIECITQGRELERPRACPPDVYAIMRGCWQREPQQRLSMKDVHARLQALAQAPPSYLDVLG

On to `CC12CCC(O)CC1=CCC1C2CCC2(C)C1CCC21CC1C=CBr` (stereo not drawn) [ENT-A013Z], for which, in the series with PC12 cells, the “CellTox positive cells normalized to total number of cells” value is 0.08 ± 0.02 and the half-maximal inhibitory concentration (IC50) is 273 nM. Moreover, in the series with Erk1/2 [1], the “time Erk1/2 phosphorylation is sustained after treatment” value was “up to 1 hr” and the Erk1/2 phosphorylation is 4.13 ± 1.46 % of control FC. Also, at TrkA [2], the “time TrkA phosphorylation is sustained after treatment” value was “up to 1 hr”.

With `C[C@H](NC(=O)Cc1cc(F)cc(F)c1)C(=O)N[C@H](C(=O)OC(C)(C)C)c1ccccc1` [DAPT, reference compound], the “fluorescence levels (APP-C99-tGFP, in words)” value in the series on γ-secretase is on record as “Fluorescence levels increased”.

On to `C[C@]12CC[C@H](O)CC1=CC[C@@H]1[C@@H]2CC[C@@]2(C)[C@H]1CC[C@@]21O[C@@H]1CO` [BNN27], for which the “residual of time zero” value in series [3] is recorded as 70%. The “time beyond which Erk1/2 is not activated” value with Erk1/2 [4] is reported as not above 15 min. On TrkA [5], the “time TrkA is phosphorylated after treatment” value is on record as “up to 6 hr”.

On to “NGF: Nerve Growth Factor, neurotrophin acting through TrkA and p75NTR receptors”, for which the TrkA phosphorylation in the series with TrkA [2] (PC12 cells, compound 500 nM or NGF 100 ng/mL, 30′) is on record as 2.30 ± 0.62 % of control FC.

As to `CC12CCC(O)CC1=CCC1C2CCC2(C)C1CCC21CC1C=CBr` (stereo not drawn) [ENT-A013E], in the series on PC12 cells, the “CellTox positive cells normalized to total number of cells” value was 0.07 ± 0.02 and the IC50 was determined as 281 nM. In the series with Erk1/2 [1], the “time Erk1/2 phosphorylation is sustained after treatment” value was “up to 1 hr” and the Erk1/2 phosphorylation is recorded as 7.87 ± 2.23 % of control FC. Besides, the “time TrkA phosphorylation is sustained after treatment” value at TrkA [2] is “up to 1 hr”.

For orientation: IC50 means the concentration at which inhibition is half-maximal.
